Records with an inconclusive call do not appear. Active and inactive are the calls of the source.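 The calls were made as follows: active = compounds cutting cell count with a fitted half-maximal dose below twice the top dose, in every run; inconclusive = runs disagree, flat partial cut, or poor curve fit; inactive = every run called inactive.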
system: not listed separately; assay: growth inhibition of CAPAN-1 cells, dose response, cell-based, imaging, dry powder, set 2 (AID 743275); details: CAPAN-1 cell number, Hoechst imaging, 14 days; at 26 µM (top of the series)

Structure (SMILES) | activity change, negative = inhibition
Cc1cc(N2CCN(C)CC2)nc2ccc(NC(=S)N3CCN(c4ccc(Cl)cc4)CC3)cc12 | 16.1% (inactive)
COc1ccc2nc(NCCNC(=S)NCCCN3CCOCC3)c(C#N)cc2c1 | -10.2% (inactive)

same assay, conditions: CAPAN-1 cell number, Hoechst imaging, 14 days; at 50 µM (top of the series)

Structure (SMILES) | activity change, negative = inhibition
O=c1c2c(-c3ccccc3)csc2nc2c3ccccc3c(NCCN3CCOCC3)nn12 | -2.92% (inactive)
COc1ccc(-c2oc3ncnc(NCCCN4CCOCC4)c3c2-c2ccc(OC)cc2)cc1 | 20.8% (inactive)
c1ccc(-c2cc(N3CCN(CCN4CCCC4)CC3)n3nccc3n2)cc1 | -9.44% (inactive)
Cc1nccn1Cc1ccc(NC(=O)c2cccc(NC(=O)c3cccnc3)c2)cc1 | 12.8% (inactive)
CN1CCCN(c2cc(-c3ccccc3)nc3ccnn23)CC1 | -7.07% (inactive)
CCCNc1nc(Cl)nc(NCc2cccnc2)n1 | 4.33% (inactive)
Cc1cc(N2CCN(C)CC2)nc2ccc(NC(=S)NCCCN3CCc4ccccc4C3)cc12 | 5.99% (inactive)
Cc1cc(N2CCN(C)CC2)nc2ccc(NC(=S)NCCCN3CCN(C)CC3)cc12 | 14.2% (inactive)
Cc1cc(C)c2c(c1)c1nnc(SCCN3CCCCC3)nc1n2C | 6.3% (inactive)
CCCN(CCC)CCCNC(=S)Nc1ccc2nc(N3CCN(CC)CC3)cc(C)c2c1 | -17.4% (inactive)
OCCNc1nc(Nc2ccccc2F)nc2ccccc12 | 25.7% (inactive)
CN1CCN(c2ccc(NC(=O)c3cc(S(N)(=O)=O)ccc3N3CCOCC3)cc2)CC1 | 4.65% (inactive)
CN(C)CCCNC(=S)N(CCN(C)C)Cc1cc2cc3c(cc2[nH]c1=O)OCCO3 | -7.72% (inactive)
CCNC(=O)Nc1ccc2nc(N3CCN(C)CC3)cc(C)c2c1 | 20.3% (inactive)
CCN(CC)CCCN(Cc1cc2cc3c(cc2[nH]c1=O)OCO3)C(=S)NCCCN(C)C | 15% (inactive)
CN(C)CCCN(C(=O)c1nc2ccccc2s1)c1nc2ccc(F)cc2s1 | -18.3% (inactive)
CN(CCCN1CCOCC1)c1cc(-c2ccc(F)cc2)nc2ccnn12 | -17.6% (inactive)
COc1ccc(-c2nn(C)c3sc(C(=O)NCCCN4CCOCC4)cc23)cc1OC | -37% (inactive)
CN(C)c1ccc(Nc2nc(N)c3ccccc3n2)cc1 | -26.6% (inactive)
CCCN1CCN(CCCNC(=S)Nc2ccc3nc(N4CCN(CC)CC4)cc(C)c3c2)CC1 | 0.584% (inactive)
c1ccc(-c2cc(N3CCC(N4CCCC4)CC3)n3nccc3n2)cc1 | 15.5% (inactive)
COc1ccccc1Nc1nc(NCCO)c2ccccc2n1 | -17.4% (inactive)
COc1nc(NCc2ccccc2)nc(NCc2cccnc2)n1 | -3.86% (inactive)
Cc1ccc(C(=O)c2oc3ccccc3c2NC(=O)CN2CCN(C)CC2)cc1 | 9.01% (inactive)
CN1CCN(CC(=O)Nc2c(C(=O)c3ccccc3)oc3ccccc23)CC1 | -11.9% (inactive)
CCN(CC)CCNc1nc(SC)nc2sc3c(c12)CCN(C)C3 | 7.64% (inactive)

system: CAPAN-1 cell number, Hoechst imaging, 14 days; assay: as above; details: not given

Structure (SMILES) | AC50
CCN(CC)CCNC(=S)Nc1ccc2nc(N3CCN(CC)CC3)cc(C)c2c1 | 31.9 µM
CCN1CCN(c2cc(C)c3cc(NC(=O)c4ccccn4)ccc3n2)CC1 | 40.8 µM
OCCNc1nc(Nc2ccccc2Cl)nc2ccccc12 | 23.9 µM
COc1ccc2oc(C(=O)c3ccccc3)c(NC(=O)CN3CCN(C)CC3)c2c1 | 38.3 µM
c1ccc(CNc2nc(NCc3ccccc3)c3ccccc3n2)cc1 | 7.8 µM
CC1(C)CC(NC(=O)c2ccc(Cl)c(S(=O)(=O)N(Cc3ccccc3)c3ccccc3)c2)CC(C)(C)N1 | 22.1 µM
CCN1CCN(C(=S)Nc2ccc3nc(N4CCN(C)CC4)cc(C)c3c2)CC1 | 26.7 µM
COc1cc2ccccc2cc1C(=O)N(CCN(C)C)c1nc2c(OC)ccc(OC)c2s1 | 33.3 µM
Cn1nc(-c2ccc(Cl)cc2)c2cc(C(=O)NCCCN3CCCC3)sc21 | 15.8 µM
Cc1ccc2nc(-c3ccc(NC(=S)NC4CC(C)(C)NC(C)(C)C4)cc3)sc2c1 | 23.6 µM
COc1ccc(OC)c(Nc2nc(NCCO)c3ccccc3n2)c1 | 30.2 µM
CCCNc1nc(NCc2cccnc2)nc(N2CCOCC2)n1 | 26.5 µM
CN(C)CCCNC(=S)NCC(c1ccc(Cl)cc1Cl)c1c[nH]c2ccccc12 (stereo not given) | 17.7 µM
COc1ccc(OC)c(Nc2nc(NCCCO)c3ccccc3n2)c1 | 24.6 µM
Cc1cc(C)c2sc(N(CCCN(C)C)C(=O)CN3C(=O)c4ccccc4C3=O)nc2c1 | 26 µM
CCCCN(CC)CCCNC(=S)Nc1ccc2nc(N3CCN(C)CC3)cc(C)c2c1 | 44.9 µM
Cc1c(C(=O)Nc2ccc(S(=O)(=O)N(C)C3CCN(C)CC3)cc2)oc2c(Cl)cccc12 | 24.1 µM
CCN(CC)CCN(C(=O)C1=COCCO1)c1nc2c(OC)ccc(OC)c2s1 | 48.6 µM
COc1ccc(C2NCCc3c2[nH]c2ccccc32)cc1COc1ccc(F)cc1 (stereo not given) | 15.2 µM
C=C1Nc2cc(-c3ccc(Cl)cc3)nn2C(NCCN(C)C)=C1C | 31.6 µM
CN1CCN(CCCNC(=O)c2cc3c(-c4ccc(Cl)cc4)nn(C)c3s2)CC1 | 7.4 µM
CN(C)CCCN(C(=O)c1ccc(C(=O)c2ccccc2)cc1)c1nc2cc3c(cc2s1)OCO3 | 30 µM
Cn1nc(-c2ccc(Cl)cc2)c2cc(C(=O)NCCCN3CCCCCC3)sc21 | 23.9 µM
Cc1ccc2sc(N(CCCN(C)C)C(=O)c3ccc(S(=O)(=O)N(C)Cc4ccccc4)cc3)nc2c1C | 20.4 µM
CCCCN(CC)CCNC(=O)c1cc2c(-c3ccc(Cl)cc3)nn(C)c2s1 | 12.6 µM
Cc1ccc2sc(N(CCCN(C)C)C(=O)c3ccc(S(=O)(=O)N(C)C4CCCCC4)cc3)nc2c1C | 34.7 µM
Cc1ccc(-c2nc(C(=O)NCCCN3CCOCC3)cc3c2[nH]c2ccccc23)cc1 | 30.8 µM

Source: PubChem BioAssay AID743275 (Broad Institute, 2014)
